Experimental data from US9174984B2, “Chemical compounds” (GlaxoSmithKline Intellectual Property (No. 2) Limited, priority 2011, dated 2015).
Values joined by “and” are separate entries in the source; they are usually repeats but may differ in a detail not shown here. Equal values may be shown once. Read-outs that look alike come from different tables or passages of the source.

Tests used:
Human full-length DNMT1 = biological target: T1, Human full-length DNMT1 (Homo sapiens, UniProt P26358); experiment: DNMT inhibition assay (3H-SAM filter-binding) against DNMT1; type: biochemical
T1 construct: Human full-length DNMT1 enzyme purchased from BPS Biosciences; purchased BPS Biosciences
T1 sequence (P26358 whole entry): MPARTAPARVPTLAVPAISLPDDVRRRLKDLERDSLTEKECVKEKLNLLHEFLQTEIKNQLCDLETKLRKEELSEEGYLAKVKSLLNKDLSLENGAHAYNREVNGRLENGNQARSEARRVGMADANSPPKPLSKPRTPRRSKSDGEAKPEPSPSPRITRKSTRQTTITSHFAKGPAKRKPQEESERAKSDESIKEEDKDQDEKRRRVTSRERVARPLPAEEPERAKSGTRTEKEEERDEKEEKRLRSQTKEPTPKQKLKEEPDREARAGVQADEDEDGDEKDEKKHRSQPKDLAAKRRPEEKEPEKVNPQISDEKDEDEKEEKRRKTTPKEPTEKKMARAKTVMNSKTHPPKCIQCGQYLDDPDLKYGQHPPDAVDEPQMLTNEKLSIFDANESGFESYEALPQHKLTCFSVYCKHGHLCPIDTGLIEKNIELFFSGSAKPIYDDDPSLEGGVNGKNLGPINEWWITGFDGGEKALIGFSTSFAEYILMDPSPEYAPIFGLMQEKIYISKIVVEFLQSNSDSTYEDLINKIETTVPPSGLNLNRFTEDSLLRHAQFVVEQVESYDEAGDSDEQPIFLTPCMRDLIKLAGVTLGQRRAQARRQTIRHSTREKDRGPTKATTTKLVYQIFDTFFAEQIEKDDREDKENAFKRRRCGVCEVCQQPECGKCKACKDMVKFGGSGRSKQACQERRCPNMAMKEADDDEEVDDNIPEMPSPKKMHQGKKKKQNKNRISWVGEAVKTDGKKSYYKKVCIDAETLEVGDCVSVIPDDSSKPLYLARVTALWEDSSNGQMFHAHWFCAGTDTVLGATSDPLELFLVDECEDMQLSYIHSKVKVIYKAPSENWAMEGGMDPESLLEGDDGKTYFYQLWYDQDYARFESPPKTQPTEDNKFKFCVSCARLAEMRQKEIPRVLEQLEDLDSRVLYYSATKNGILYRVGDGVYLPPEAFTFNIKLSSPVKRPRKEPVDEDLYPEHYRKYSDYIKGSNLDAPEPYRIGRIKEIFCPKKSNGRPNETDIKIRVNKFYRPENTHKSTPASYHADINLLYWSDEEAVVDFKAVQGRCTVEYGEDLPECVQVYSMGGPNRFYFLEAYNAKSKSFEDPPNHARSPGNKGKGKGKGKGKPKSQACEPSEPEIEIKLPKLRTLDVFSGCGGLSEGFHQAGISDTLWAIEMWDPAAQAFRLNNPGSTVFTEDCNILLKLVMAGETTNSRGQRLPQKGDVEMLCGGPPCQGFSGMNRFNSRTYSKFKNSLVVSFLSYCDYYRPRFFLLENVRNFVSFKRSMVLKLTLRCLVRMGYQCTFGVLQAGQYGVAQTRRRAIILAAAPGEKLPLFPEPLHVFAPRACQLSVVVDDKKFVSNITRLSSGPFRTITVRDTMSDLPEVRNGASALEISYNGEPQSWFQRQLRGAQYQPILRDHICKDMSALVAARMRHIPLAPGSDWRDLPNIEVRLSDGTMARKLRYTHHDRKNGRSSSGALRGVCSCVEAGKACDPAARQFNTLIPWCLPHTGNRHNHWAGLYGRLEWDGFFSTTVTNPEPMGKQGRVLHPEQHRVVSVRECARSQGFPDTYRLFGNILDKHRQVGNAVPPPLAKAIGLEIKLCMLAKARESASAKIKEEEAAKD

Human DNMT3b/3L = biological target: T2, Human DNMT3b/3L (Homo sapiens, UniProt Q9UBC3); experiment: DNMT inhibition assay (3H-SAM filter-binding) against DNMT3b/3L; type: biochemical; conditions: read-out: IC50 against DNMT 3b/3L
T2 construct: truncated 3b (catalytic domain)
Description: DNMT Assays Used for Examples 1-114
Human DNMT3b/3L was coexpressed using truncated 3b (catalytic domain) and 3L (DNA binding domain) at GSK. Human full-length DNMT1 enzyme purchased from BPS Biosciences. Poly(dIdC) DNA (Sigma) was used at 0.002 mg/mL. Tritiated SAM (Perkin Elmer) was used at 500 nM. DNA, DNMT enzyme, and inhibitors were mixed with assay buffer (20 mM Tris pH8, 5% glycerol, 1 mM EDTA, 100 μg/mL BSA, 1 mM DTT, 50 mM NaCl) and pre-incubated without SAM for 30 min. H3 SAM was then added to initiate the methylation reaction which continues at 37° C. for 1 h. Reaction mixture was then transferred to a filter plate (Millipore Multiscreen HTS DE), then washed with 50 mM H2PO4 and 95% Ethanol. Scintillation counts were measured on the Perkin Elmer Microbeta scintillation counter.
DNMT Assays Used for Examples 115-120
DNMT enzymes were produced by GlaxoSmithKline. Human DNMT3b/3L was coexpressed using truncated 3b (catalytic domain) and 3L (DNA binding domain). DNMT1 was human, full-length protein. 3H-SAM was purchased from Perkin Elmer. Custon DNA oligonucleotide substrates were purchased from Integrated DNA technologies.
28-mer DNA Oligonucleotide Duplex (for DNMT3b/3L)
DNMT enzyme was preincubated with compound for 1 hr at RT, after which SAM and DNA were added to initiate the methylation reaction. The methylation reaction was quenched after 20 min upon the addition of >100 fold excess non-radioactive SAM. The quenched reaction mixture (80%) was transferred to a DEAE filter binding plate (Millipore Multiscreen HTS DE), washed with 3 volumes of 50 mM phosphate buffer and dried. Scintillation cocktail (MicroScint-20) was added to the plate and radioactivity (3H-DNA) was measured using a Perkin Elmer TopCount scintillation counter.
Final reagent concentrations (prior to quench) consisted of the following:
DNMT3b/3L (10 nM), 200 nM DNA, 200 nM 3H-SAM in 20 mM Tris (pH 8), 1 mM DTT, 1 mM EDTA, 25 mM NaCl, 1 mM CHAPS and 2% DMSO.

[1] = at least one experimental run or average of several runs, Examples 1-114 and 115-120 use different protocols

| IC50 (Human full-length DNMT1; [1]) | IC50 (Human DNMT3b/3L; [1]) [nM] | Compound | other results |
| --- | --- | --- | --- |
| 19.1 to 300 µM |  | Nc1ccccc1CNC(=S)NCc1ccnc2[nH]ccc12 [Example 26, 1-((1H-pyrrolo[2,3-b]pyridin-4-yl)methyl)-3-(2-aminobenzyl)thiourea] |  |
| 19.1 to 300 µM and ≤ 100 µM |  | Nc1ccc([N+](=O)[O-])cc1CNC(=S)NCc1ccnc2[nH]ccc12 [Example 30, 1-((1H-pyrrolo[2,3-b]pyridin-4-yl)methyl)-3-(2-amino-5-nitrobenzyl)thiourea] |  |
| 19.1 to 300 µM | ≤ 20000 | C=CC(=O)Nc1cc(CNC(=S)NCc2ccnc3[nH]ccc23)cc(C(F)(F)F)c1 [Example 35, N-(3-((3-((1H-pyrrolo[2,3-b]pyridin-4-yl)methyl)thioureido)methyl)-5-(trifluoromethyl)phenyl)acrylamide] |  |
|  |  | COCC#CC(=O)Nc1cccc(CNC(=S)NCc2ccnc3[nH]ccc23)c1 [Example 41, N-(3-((3-((1H-pyrrolo[2,3-b]pyridin-4-yl)methyl)thioureido)methyl)phenyl)-4-methoxybut-2-ynamide] | IC50 (Human DNMT3b/3L): ≤ 1000 nM; IC50 (Human full-length DNMT1; read-out: IC50 against DNMT 1): 19.1 to 300 µM and ≤ 200 µM |
| 19.1 to 300 µM | ≤ 20000 | CC#CC(=O)Nc1ccccc1CNS(=O)(=O)NCc1ccnc2[nH]ccc12 [Example 42, N-(2-(((N-((1H-pyrrolo[2,3-b]pyridin-4-yl)methyl)sulfamoyl)amino)methyl)phenyl)but-2-ynamide] |  |
| 19.1 to 300 µM |  | NC(CCCCNC(=S)NCc1ccnc2[nH]ccc12)C(=O)O (stereo not shown) [Example 46, 6-(3-((1H-pyrrolo[2,3-b]pyridin-4-yl)methyl)thioureido)-2-aminohexanoic acid] |  |
| 19.1 to 300 µM and ≤ 200 µM |  | O=C(C#Cc1ccc(F)cc1)NCCNC(=S)NCc1ccnc2[nH]ccc12 [Example 85, N-(2-(3-((1H-pyrrolo[2,3-b]pyridin-4-yl)methyl)thioureido)ethyl)-3-(4-fluorophenyl)propiolamide] |  |
| 19.1 to 300 µM and 75 µM and ≤ 100 µM |  | O=C(C#Cc1cccc(F)c1)NCCNC(=S)NCc1ccnc2[nH]ccc12 [Example 86, N-(2-(3-((1H-pyrrolo[2,3-b]pyridin-4-yl)methyl)thioureido)ethyl)-3-(3-fluorophenyl)propiolamide] |  |
| 19.1 to 300 µM and ≤ 100 µM | ≤ 1000 | O=C(C#Cc1ccc([N+](=O)[O-])cc1)NCCNC(=S)NCc1ccnc2[nH]ccc12 [Example 87, N-(2-(3-((1H-pyrrolo[2,3-b]pyridin-4-yl)methyl)thioureido)ethyl)-3-(4-nitrophenyl)propiolamide] |  |
| 19.1 to 300 µM |  | Cc1ccc(C#CC(=O)NCCNC(=S)NCc2ccnc3[nH]ccc23)cc1 [Example 88, N-(2-(3-((1H-pyrrolo[2,3-b]pyridin-4-yl)methyl)thioureido)ethyl)-3-(p-tolyl)propiolamide] |  |
| 19.1 to 300 µM and ≤ 200 µM |  | O=C(C#Cc1ccc(Cl)cc1)NCCNC(=S)NCc1ccnc2[nH]ccc12 [Example 89, N-(2-(3-((1H-pyrrolo[2,3-b]pyridin-4-yl)methyl)thioureido)ethyl)-3-(4-chlorophenyl)propiolamide] |  |
| 19.1 to 300 µM and ≤ 100 µM |  | COc1ccc(C#CC(=O)NCCNC(=S)NCc2ccnc3[nH]ccc23)cc1OC [Example 92, N-(2-(3-((1H-pyrrolo[2,3-b]pyridin-4-yl)methyl)thioureido)ethyl)-3-(3,4-dimethoxyphenyl)propiolamide] |  |
| 19.1 to 300 µM and ≤ 100 µM |  | O=C(C#Cc1ccc2c(c1)OCO2)NCCNC(=S)NCc1ccnc2[nH]ccc12 [Example 93, N-(2-(3-((1H-pyrrolo[2,3-b]pyridin-4-yl)methyl)thioureido)ethyl)-3-(benzo[d][1,3]dioxol-5-yl)propiolamide] |  |
| 19.1 to 300 µM |  | C=CC(=O)Nc1ccc([N+](=O)[O-])cc1CNC(=S)NCc1ccnc2[nH]ccc12 [Example 110, N-(2-((3-((1H-Pyrrolo[2,3-b]pyridin-4-yl)methyl)thioureido)methyl)-4-nitrophenyl)acrylamide] |  |
| 19.1 to 300 µM and ≤ 200 µM |  | NCC(=O)Nc1ccccc1CNC(=S)NCc1ccnc2[nH]ccc12 [Example 114, N-(2-((3-((1H-Pyrrolo[2,3-b]pyridin-4-yl)methyl)thioureido)methyl)phenyl)-2-aminoacetamide] |  |
| ≤ 100 µM | ≤ 10000 | S=C(NCc1ccccc1C1CCCNC1)NCc1ccnc2[nH]ccc12 (stereo not shown) [Example 116, 1-((1H-pyrrolo[2,3-b]pyridin-4-yl)methyl)-3-(2-(piperidin-3-yl)benzyl)thiourea] |  |
|  | ≤ 10000 | CN(C(=O)C#Cc1ccccc1)c1cccc(CNC(=S)NCc2ccnc3[nH]ccc23)c1 [Example 117, N-(3-((3-((1H-pyrrolo[2,3-b]pyridin-4-yl)methyl)thioureido)methyl)phenyl)-N-methyl-3-phenylpropiolamide] |  |
|  | ≤ 1000 | O=C(C#CC1CCCC1)Nc1cccc(CNC(=O)NCc2ccnc3[nH]ccc23)c1 [Example 118, N-(3-((3-((1H-pyrrolo[2,3-b]pyridin-4-yl)methyl)ureido)methyl)phenyl)-3-cyclopentylpropiolamide] |  |
|  | ≤ 1000 | O=C(NCc1ccnc2[nH]ccc12)NC1CN(C(=O)C#CC2CCCCC2)C1 [Example 119, 1-((1H-pyrrolo[2,3-b]pyridin-4-yl)methyl)-3-(1-(3-cyclohexylpropioloyl)azetidin-3-yl)urea] |  |
|  | ≤ 1000 | O=C(NCc1ccccc1-c1cscn1)NCc1ccnc2[nH]ccc12 [Example 120, 1-((1H-pyrrolo[2,3-b]pyridin-4-yl)methyl)-3-(2-(thiazol-4-yl)benzyl)urea] |  |
